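All cell lines were grown in 96-well plates and treated with compound for 48 hours. GI50 marks 50% less growth. At the TGI there is no net growth.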
Tested on: MDA-MB-468 breast
Assay: NCI anticancer screen, dose series, 48 h

Compound | GI50 [µM] | TGI [µM]
O=C1C=C(Nc2cccc(Br)c2)c2ccccc2C1=O | 17.6 | 83.8
Oc1ccc(-c2nnc(SCc3ccc(O)c4ncccc34)o2)cc1 | 2 | 8.06
CC1Cc2c(N(C)C)ncnc2N(C)c2ccc(Cl)cc21 (stereo not given) | 2.66 | 67.7
Nc1ncnc2occ(-c3ccc(NC(=O)Nc4cc(C(F)(F)F)cc(C(F)(F)F)c4)cc3)c12 | 2.75 | 7.81
Cc1nn(-c2ccccc2)c2c1C1C(=C(c3ccc(Cl)cc3)N2)C(=O)Nc2ccccc21 (stereo not given) | 3.34 | 19.5
Cc1ccc([P+](Cc2ccc([N+](=O)[O-])cc2)(c2ccc(C)cc2)c2ccc(C)cc2)cc1 | 0.66 | 5.8
Cc1ccc(NCSc2ccc(Cl)cc2)cc1 | 2.68 | 8.05
CCCC/C(=N\N=C(N)N)c1ccc(F)cc1 | 0.59 | 5.81
N#CC1c2ccccc2-c2ccccc2N1C(=O)c1ccccc1 (stereo not given) | 0.383 | > 26.1
Oc1ccc(CSc2nnc(-c3cnccn3)o2)c2cccnc12 | 0.639 | 7.8
CCOC(=O)c1[nH]c2c(c1C)-c1[nH]c(=O)c(S(=O)(=O)c3ccccc3)cc1SC2 | 54 | > 100
O=C1c2cccnc2C(=O)c2c1c(C(=O)OCCCN1CCOCC1)c1ccccn21 | 1.39 | 7.1
CCN(CC)CCC(=O)Nc1ccc(Cn2nnc3c2C(=O)c2nnn(Cc4ccc(NC(=O)CCN(CC)CC)cc4)c2C3=O)cc1 | 0.17 | 0.374
COc1ccccc1Cn1cc2c(c1)-c1oncc1CC2 | 0.217 | 0.697
CN1C(=O)c2cc(Cl)nc3c(NC(=O)c4cccc(Cl)c4)c(Cl)c(NC(=O)c4cccc(Cl)c4)c1c23 | 1.99 | 6.05

Reference: PubChem BioAssay (NCI)
